The conditions of data set [1]: humans, oral, SAD and MAD studies; cited from earlier work.
Details of data set [2]: species or system humans. The conditions noted are these: in vivo. The text has this:
AT-001 is in clinical development by Applied Therapeutics for treatment of diabetic cardiomyopathy (American Heart Association 2019 Abstract Mo-2278). […] So, AT-001 would be between approximately 7-12 times shorter lived in human plasma compared to the reported human plasma half-life of zopolrestat (vide infra).

The conditions of data set [3]: humans; cited from earlier work.
For data set [4] the following is noted: ARI i.v. with probenecid i.p., Sprague-Dawley rats; cited from earlier work.
For data set [5] the following is noted: animal model, cited from earlier work.
For data set [6] the following is noted: mouse model of peripartum cardiomyopathy; cited from earlier work.
For data set [7] the following is noted: non-diabetic patients with heart failure with reduced ejection fraction; cited from earlier work.
The target in data set [8] is T1, transient receptor potential vanilloid 2 (TRPV2) channel (Homo sapiens, UniProt Q9Y5S1).
T1 sequence (Q9Y5S1 1-764): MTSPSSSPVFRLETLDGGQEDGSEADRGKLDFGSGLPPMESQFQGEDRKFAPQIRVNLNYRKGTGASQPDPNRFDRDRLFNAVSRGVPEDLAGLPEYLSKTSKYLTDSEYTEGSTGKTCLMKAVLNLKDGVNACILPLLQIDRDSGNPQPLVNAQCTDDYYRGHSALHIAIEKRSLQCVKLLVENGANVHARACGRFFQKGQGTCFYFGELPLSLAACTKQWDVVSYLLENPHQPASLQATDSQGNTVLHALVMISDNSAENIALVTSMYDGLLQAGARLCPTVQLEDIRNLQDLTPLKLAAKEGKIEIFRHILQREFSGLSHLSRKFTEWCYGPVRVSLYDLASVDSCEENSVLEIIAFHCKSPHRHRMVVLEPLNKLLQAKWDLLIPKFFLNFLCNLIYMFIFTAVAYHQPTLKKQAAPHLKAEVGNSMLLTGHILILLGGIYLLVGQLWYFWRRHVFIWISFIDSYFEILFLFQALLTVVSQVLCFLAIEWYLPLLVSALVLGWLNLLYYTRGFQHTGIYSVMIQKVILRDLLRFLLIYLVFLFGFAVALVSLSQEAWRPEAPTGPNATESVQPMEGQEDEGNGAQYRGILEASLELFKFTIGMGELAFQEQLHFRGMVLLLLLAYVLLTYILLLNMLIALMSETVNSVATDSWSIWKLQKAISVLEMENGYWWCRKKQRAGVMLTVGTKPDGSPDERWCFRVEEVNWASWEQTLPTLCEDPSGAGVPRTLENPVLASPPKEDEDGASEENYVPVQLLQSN
The conditions noted are these: cited from earlier work.

Data set [9] concerns the target T2, TRPV2 (Mus musculus, UniProt Q9WTR1).
T2 construct: TRPV2 is expressed in the murine heart; host or cells: murine heart (in vitro and in vivo)
T2 sequence (Q9WTR1 1-756): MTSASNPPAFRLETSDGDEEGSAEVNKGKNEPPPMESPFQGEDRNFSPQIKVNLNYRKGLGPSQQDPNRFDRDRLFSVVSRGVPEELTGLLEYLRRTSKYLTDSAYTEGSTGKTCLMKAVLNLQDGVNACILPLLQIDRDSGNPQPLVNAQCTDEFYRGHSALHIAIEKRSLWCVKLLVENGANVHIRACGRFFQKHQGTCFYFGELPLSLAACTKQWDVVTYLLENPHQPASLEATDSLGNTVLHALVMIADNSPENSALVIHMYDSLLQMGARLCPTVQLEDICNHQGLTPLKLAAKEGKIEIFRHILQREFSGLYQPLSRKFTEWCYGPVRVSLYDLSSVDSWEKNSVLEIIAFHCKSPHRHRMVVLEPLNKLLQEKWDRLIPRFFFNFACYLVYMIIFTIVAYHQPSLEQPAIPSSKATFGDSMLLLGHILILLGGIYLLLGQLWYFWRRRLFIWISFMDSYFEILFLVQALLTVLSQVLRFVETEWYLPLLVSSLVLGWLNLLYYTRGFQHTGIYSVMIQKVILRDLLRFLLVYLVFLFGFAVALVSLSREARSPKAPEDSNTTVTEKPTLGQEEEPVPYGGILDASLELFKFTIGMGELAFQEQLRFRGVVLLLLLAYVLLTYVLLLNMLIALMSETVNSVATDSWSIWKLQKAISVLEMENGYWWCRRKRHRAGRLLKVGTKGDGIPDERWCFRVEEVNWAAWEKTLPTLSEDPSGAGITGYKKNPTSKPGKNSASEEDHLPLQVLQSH
The conditions noted are these: cited from earlier work.

For data set [10] the following is noted: water; cited from earlier work.
For data set [11] the following is noted: cited from earlier work.
For data set [12] the following is noted: humans, oral route; cited from earlier work.

Consider six compounds from patent publication US20240033263A1, “COMBINATION OF ALDOSE REDUCTASE INHIBITORS AND PROBENECID FOR THE TREATMENT OF DIABETIC COMPLICATIONS” (priority 2021, published 2024).

Each structure is given as a SMILES string. Like-named read-outs stand apart in the source and are kept apart here.

As for `O=C(O)Cc1nn(Cc2nc3cc(C(F)(F)F)ccc3s2)c(=O)c2nccnc12` [AT-001], in data set [1], the “median time of maximum concentration (Tmax)” value is 1.75 to 3.38 h and the plasma half-life is 1.74 to 3.38 h. For the same compound, the “times shorter lived in human plasma compared to zopolrestat” value in data set [2] is 7-12 times.

Regarding `CC(/C=C1\SC(=S)N(CC(=O)O)C1=O)=C\c1ccccc1` [Epalrestat], in data set [3], the plasma half-life entry is on record as “relatively short”.

As for `O=C(O)CNS(=O)(=O)c1ccc(NC(=O)c2ccccc2)cc1` [N-[4-(benzoylaminophenyl)sulfonyl]glycine], the “plasma profiles and pharmacokinetic parameters (AUC, clearance, mean residence time, volume of distribution)” value in [4] was “did not alter”.

For the compound `CCCN(CCC)S(=O)(=O)c1ccc(C(=O)O)cc1` [probenecid, 4-(dipropylsulfamoyl)benzoic acid], in data set [5], the “apoptotic or arrhythmic pathways” value is listed as “does not elicit”. The myocardial contractility result in data set [5] (via increased calcium cycling on a beat-to-beat basis) is “increases”. Moreover, the outcomes in data set [6] was “improves outcomes”. Also, the cardiac function entry in [7] is given as “improve cardiac function”. In data set [8], the “agonism of TRPV2 channel” value is “potent agonist”. The inotropic response result in data set [9] (both in vitro and in vivo) was “positive inotropic response”. Further, in [9] (murine heart, TRPV2 activated with probenecid), the “cytosolic calcium (Ca2+) concentration” value is given as “increases”.

By solubility is commonly meant the dissolved amount per volume that the medium holds. `CCCN(CCC)S(=O)(=O)c1ccc(C(=O)[O-])cc1.[Na+]` [sodium salt of probenecid]: the solubility in [10] is listed as 77 mg/mL.

With `O=C(O)Cc1nn(Cc2nc3cc(C(F)(F)F)ccc3s2)c(=O)c2ccccc12` [zopolrestat], the “resting diastolic filling rates” value in data set [11] (after 1 year of treatment, either group) was “no change”. Besides, the “exercise LVEF” value in data set [11] (after 1 year of zopolrestat treatment, P 0.001) is listed as “increases”. In data set [11] (after 1 year of zopolrestat treatment, P 0.004), the “left ventricular stroke volume” value is recorded as “increases”. Also, the “resting left ventricular ejection fraction (LVEF)” value in [11] (after 1 year of zopolrestat treatment, P 0.02) is listed as “increases”. The cardiac output entry in [11] (after 1 year of zopolrestat treatment, P 0.03) was “increases”. The plasma half-life in data set [12] was 27.5 h.
